Assay [1] has as its target T1, VDAC1 (Rattus norvegicus, UniProt Q9Z2L0).
T1 construct: from tissue; host or cells: Percoll-purified rat brain and liver mitochondria
Kind of assay: Affinity labeling of rat mitochondria with the tritiated spiro compound, SDS-PAGE and fluorography. Type of assay: binding. As for the experimental part: FIG. 6: Affinity-labeling of isolated rat brain (A) and liver (B) mitochondria. Mitochondrial preparations were incubated in the presence of 10 nM Spiro[cyclopentane-1,5′-[5H]dibenzo[a,d]cyclohepten]-2-one,10′,11′-t2-10′,11′-dihydro-3-methylene- for 15 min at 25° C. in presence or absence of various concentrations of Spiro[cyclopentane-1,5′-[5H]dibenzo[a,d]cyclohepten]-2-one,10′,11′-dihydro-3-methylene-(unlabeled). Samples were submitted to SDS-PAGE (see Experimental Procedures section for details) and fluorography. The fluorograms of the gels are shown. The molecular mass scale (kDa) is shown in the ordinate.
(§1) FIG. 8: (A) Effect of monobromobimano (MBBM) and phenylarsino oxide (PhAO) on VDAC1 labeling by Spiro[cyclopentane-1,5′-[5H]dibenzo[a,d]cyclohepten]-2-one,10′,11′-t2-10′,11′-dihydro-3-methylene- in rat brain mitochondria. Experimental conditions were as in the legend to FIG. 5. (B) Effect of various MPTP inhibitors, atractyloside (ATR) and DIDS on VDAC1 labeling by Spiro[cyclopentane-1,5′-[5H]dibenzo[a,d]cyclohepten]-2-one,10′,11′-t2-10′,11′-dihydro-3-methylene- in rat brain mitochondria. Mitochondria were exposed to DIDS for 5 min before rinsing for removal of the free agent and labeling with Spiro[cyclopentane-1,5′-[5H]dibenzo[a,d]cyclohepten]-2-one,10′,11′-t2-10′,11′-dihydro-3-methylene.
Percoll purified mitochondria (˜30 μg protein per sample) were incubated in the presence of 10 nM Spiro[cyclopentane-1,5′-[5H]dibenzo[a,d]cyclohepten]-2-one,10′,11′-t2-10′,11′-dihydro-3-methylene- in a final volume of 200 μl. After incubation for 15 min at 25° C., samples were centrifuged at 25000×g and the mitochondrial pellet rinsed twice with buffer. Samples were then solubilized in sample buffer containing β-mercaptoethanol (1 h at 37° C.) and subjected to SDS-polyacrylamide gel-electrophoresis (SDS-PAGE) on Tris-glycine Novex pre-cast mini-gels (12% monomer concentration, Invitrogen BV, The Netherlands). After Coomassie Blue staining, gels were processed for fluorography by soaking in Amplify™ (Amersham Biosciences), drying and exposing to X-ray BioMax MS film with BioMax MS intensifying screen (Kodak) at −80° C. for the appropriate time.
as §1, with “Effect” for “FIG. 8: (A) Effect”, “monobromobimano” for “monobromobimano (MBBM)”, “oxide” for “oxide (PhAO)”, “Example 12 (FIG. 8A).” for “the legend to FIG. 5. (B)”, “Spiro[cyclopentane-1,5′-[5H]dibenzo[a,d]cyclohepten]-2-one,10′,11′-t2-10′,11′-dihydro-3-methylene (FIG. 8B).” for “Spiro[cyclopentane-1,5′-[5H]dibenzo[a,d]cyclohepten]-2-one,10′,11′-t2-10′,11′-dihydro-3-methylene.”

The subject of assay [2] is MPTP. The experiment in a line: Ca2+-induced swelling (MPTP) in rat liver mitochondria energised with succinate. To be noted: as E1, in the presence of 1 μg/ml oligomycin. Type of assay: biochemical. As for the experimental part: Ca^2+-induced swelling (sucrose permeability) in energized mitochondria was assayed at 25° C. in 96 well-plates by measuring changes in absorbance at 540 nm by means of a […]ax 250 spectrophometer controlled by the SOFTmax PRO™ software (Molecular Devices, Switzerland). The incubation medium contained 0.2 M sucrose, 10 mM Tris-Mops, pH 7.4, 1 mM Pi-Tris, 5 μM EGTA. Succinate (5 mM, in the presence of 2 μM rotenone) or 5 mM glutamate/2.5 mM malate, buffered to pH 7.4 with Tris, were used as respiratory substrates. After a short (˜5 min) preincubation in presence or absence of test compounds, mitochondrial swelling was induced by the addition of 20 μl CaCl2 at final concentrations ranging from 40 to 80 μM, depending on respiratory substrates and Ca^2+ sensitivity of the mitochondrial preparation. The final incubation volume was 0.2 ml and the concentration of mitochondria was ˜0.5 mg mitochondrial protein ml^−1. Swelling kinetics was followed for up to 30 min at 25° C. Absorbance readings were taken every 12 sec and the plate was shaken for 3 s between readings to ensure oxygen diffusion during the experiment and to avoid sedimentation of the mitochondria.
The incubation medium contained 0.2 M sucrose, 10 mM Tris-Mops, pH 7.4, 1 mM Pi-Tris, 5 μM EGTA.

The target in assay [3] is T2, MPTP (Rattus norvegicus, UniProt Q9Z2L0).
T2 construct: other: n=2; glutamate/malate; other: glutamate/malate; 20 min; mean±SEM; unit not given; other: 300 nM; relieved by 50 μM Ub5
Kind of assay: Ca2+-retention capacity of rat brain mitochondria (Calcium Green-5N). It is filed as biochemical. The conditions noted are these: Ca2+ pulses, rat brain mitochondria. As for the experimental part: FIG. 4: (A) Effect of Spiro[cyclopentane-1,5′-[5H]dibenzo[a,d]cyclohepten]-2-one,10′,11′-dihydro-3-methylene- and CsA on Ca^2+-retention capacity of rat brain mitochondria. The incubation medium contained 0.2 M sucrose, 10 mM Tris-Mops, pH 7.4, 1 mM Pi-Tris, 5 μM EGTA and 5 mM glutamate/2.5 mM malate, buffered to pH 7.4 with Tris, containing 0.01% (w/v) bovine serum albumin and 1 μM Calcium Green-5N. The final volume was 2.5 ml. Trace (a) control, (b) 1 μM CsA, (c) 1 μM Spiro[cyclopentane-1,5′-[5H]dibenzo[a,d]cyclohepten]-2-one,10′,11′-dihydro-3-methylene- and (d) 1 μM CsA plus 1 μM Spiro[cyclopentane-1,5′-[5H]dibenzo[a,d]cyclohepten]-2-one,10′,11′-dihydro-3-methylene-. Each fluorescence spike corresponds to addition of 5 μM Ca^2+. (B) Comparison of Ca^2+-retention capacity in liver (a) and brain mitochondria (b).
Effect of Spiro[cyclopentane-1,5′-[5H]dibenzo[a,d]cyclohepten]-2-one,10′,11′-dihydro-3-methylene- and CsA on Ca^2+-retention capacity of rat brain mitochondria (FIG. 4). Measurement of extramitochondrial Ca^2+ was determined using a Perkin-Elmer LS-50B fluorimeter controlled by the FL WinLab computer program. […] The final volume was 2.5 ml and the cuvette was thermostated at 25° C. Brain mitochondria were then subjected to a train of 5 μM Ca^2+ additions (˜150 nmol mg protein^−1). Extramitochondrial Ca^2+ was monitored at excitation/emission wavelengths of 505-535. […] The Ca^2+-retention capacity in liver (a) and brain mitochondria (b) were also compared (FIG. 4B).
The effect of Spiro[cyclopentane-1,5′-[5H]dibenzo[a,d]cyclohepten]-2-one,10′,11′-dihydro-3-methylene- at inhibiting MPTP was also investigated in mitochondria isolated from rat forebrain. […] Due to the difficulties mentioned above, the effect of Spiro[cyclopentane-1,5′-[5H]dibenzo[a,d]cyclohepten]-2-one,10′,11′-dihydro-3-methylene- on MPTP in brain mitochondria was more accurately investigated by subjecting mitochondria isolated from rat forebrain to a series of Ca^2+ pulses (5 μM, ˜150 nmol mg protein^−1) and by monitoring extramitochondrial Ca^2+ or using fluororescent probes.

In assay [4] the target is T3, YVDAC1 (Saccharomyces cerevisiae, UniProt P04840).
T3 construct: expressed in transfected cells; host or cells: Δpor1 yeast strain carrying a YVDAC1 plasmid; isolated mitochondria
T3 sequence (P04840 2-283): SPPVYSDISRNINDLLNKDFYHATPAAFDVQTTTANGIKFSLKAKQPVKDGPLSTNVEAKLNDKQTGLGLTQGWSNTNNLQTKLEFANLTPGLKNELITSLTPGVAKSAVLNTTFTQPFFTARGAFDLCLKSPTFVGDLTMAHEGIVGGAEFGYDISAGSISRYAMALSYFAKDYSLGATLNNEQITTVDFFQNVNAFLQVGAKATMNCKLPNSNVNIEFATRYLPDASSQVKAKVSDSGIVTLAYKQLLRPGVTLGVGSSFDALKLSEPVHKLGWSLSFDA
The experiment in a line: Affinity labeling of yeast mitochondria (Δpor1 and Δpor1 expressing YVDAC1). Type of assay: binding. To be noted: Δpor1 strains with plasmid expressing YVDAC1. From the text:
(§2) FIG. 9: Spiro[cyclopentane-1,5′-[5H]dibenzo[a,d]cyclohepten]-2-one,10′,11′-t2-10′,11′-dihydro-3-methylene affinity labeling of yeast mitochondria lacking the por1 gene for YVDAC1 (Δpor1) and into Δpor1 yeast mitochondria transfected with YVDAC1 in presence or absence of different concentrations of Spiro[cyclopentane-1,5′-[5H]dibenzo[a,d]cyclohepten]-2-one,10′,11′-dihydro-3-methylene (unlabeled). The fluorograms of gels after SDS-PAGE are shown. Mitochondria isolated from yeast strains were incubated in the presence of 10 nM Spiro[cyclopentane-1,5′-[5H]dibenzo[a,d]cyclohepten]-2-one,10′,11′-t2-10′,11′-dihydro-3-methylene for 15 min at 25° C. Numbers indicate the concentrations (μM) of the various compounds added.
(§3) To further confirm VDAC1 as the protein target of Spiro[cyclopentane-1,5′-[5H]dibenzo[a,d]cyclohepten]-2-one,10′,11′-dihydro-3-methylene-, the labeling of proteins in mitochondria prepared from yeasts by Spiro[cyclopentane-1,5′-[5H]dibenzo[a,d]cyclohepten]-2-one,10′,11′-t2-10′,11′-dihydro-3-methylene- was investigated. […] Increasing concentration of unlabelled Spiro[cyclopentane-1,5′-[5H]dibenzo[a,d]cyclohepten]-2-one,10′,11′-dihydro-3-methylene-inhibited incorporation of the radioactivity (FIG. 9).

Assay [5] concerns YVDAC1. Described as above. Type of assay: binding. To be noted: Δpor1 strains.
From the text: as §2, §3

Assay [6] has as its target T4, human VDAC1 (Homo sapiens, UniProt P21796).
T4 construct: expressed in transfected cells; host or cells: Δpor1 yeast strain transformed with a human VDAC1 plasmid; isolated mitochondria
Kind of assay: Affinity labeling of Δpor1 yeast mitochondria expressing human VDAC1. Type of assay: binding. To be noted: Δpor1 strains with plasmid expressing human VDAC1.
From the text: as §3

For orientation: EC50 means the concentration giving half of the maximal effect.

T1 sequence (Q9Z2L0 whole entry): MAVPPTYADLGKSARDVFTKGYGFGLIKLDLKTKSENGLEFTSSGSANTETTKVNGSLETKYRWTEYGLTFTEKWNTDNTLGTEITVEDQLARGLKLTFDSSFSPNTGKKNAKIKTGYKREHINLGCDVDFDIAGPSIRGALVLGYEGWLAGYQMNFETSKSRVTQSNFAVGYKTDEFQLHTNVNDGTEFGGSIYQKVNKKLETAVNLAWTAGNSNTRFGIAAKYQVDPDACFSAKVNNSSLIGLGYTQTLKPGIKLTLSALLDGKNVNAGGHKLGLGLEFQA
T4 sequence (P21796 whole entry): as the sequence (Q9Z2L0 whole entry) above, with N55T, V129M, S160A, V227I counted along it
T2 sequence (Q9Z2L0 2-283): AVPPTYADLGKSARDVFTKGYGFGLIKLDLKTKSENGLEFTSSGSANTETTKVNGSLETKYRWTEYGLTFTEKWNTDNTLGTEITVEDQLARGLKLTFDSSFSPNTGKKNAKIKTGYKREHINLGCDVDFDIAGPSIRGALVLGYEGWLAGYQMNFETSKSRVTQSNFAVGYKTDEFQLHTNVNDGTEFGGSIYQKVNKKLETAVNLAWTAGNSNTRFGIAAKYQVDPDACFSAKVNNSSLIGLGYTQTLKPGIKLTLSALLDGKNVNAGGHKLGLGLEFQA

For the compound `Nc1ncnc2c1ncn2[C@@H]1O[C@H](COP(=O)(O)OP(=O)(O)O)[C@@H](O)[C@H]1O` [ADP], in assay [1] (rat brain mitochondria, 10 nM radiolabel), the “Effect on VDAC1 labeling (incorporation of radioactivity) by the tritiated spiro compound” value is “did not affect”. Moreover, the EC50 in assay [2] worked out at 4.8 µM. Also, the “Additive effect when combined with the spiro compound (Example 2)” value in assay [3] is recorded as “additive”.
`[3H]C1c2ccccc2C2(CCC(=C)C2=O)c2ccccc2C1[3H]` (stereo not shown) [Spiro[cyclopentane-1,5′-[5H]dibenzo[a,d]cyclohepten]-2-one,10′,11′-t2-10′,11′-dihydro-3-methylene-]: in assay [1] (10 nM, intact rat brain and liver mitochondria), the “Labeling of ~32 kDa protein (VDAC1)” value was “predominantly labeled”. Besides, in assay [4], the “Labeling of 29 kDa band in yeast mitochondria” value is listed as “prominent labeling”. Also, in assay [5], the “Labeling in yeast mitochondria lacking YVDAC1” value was “virtually no labeling”. In addition, the “Labeling in yeast mitochondria expressing human VDAC1” value in assay [6] is recorded as “no dear labeling”.

For the origin of these results see US7642283B2, “Mitochrondrial permeability transition pore affinity labels and modulators” (Hoffmann-La Roche Inc., priority 2003, dated 2010).
